Consider five molecules from PMC7139375 (2020).

In experiment [1] the test system is DDT_13 (DNA, aptamer) TCCAGCACTCCACGCATAACGAATTGTGCTCAATGCGCCCCTGCAGTGAATGTGGAATTTGTTATGCGTGCGACGGTGAA
The experiment is described as follows: AuNPs colorimetric assay. Particulars: room temperature.

Experiment [2] shares this test system. The experiment is described as follows: SYBR Green I fluorescence assay. Particulars: 137 mM NaCl, 2.5 mM KCl, 0.5 mM MgCl2, 1 mM CaCl2; phosphate binding buffer pH 7.2, room temperature; interferent prepared at 5 μM.

For `CC(C)(c1cc(Br)c(O)c(Br)c1)c1cc(Br)c(O)c(Br)c1`, the binding entry in experiment [1] (interferent prepared at 7.4 μM) is “no”. For the molecule `CCOC(=O)C(C)=O`, the binding entry in experiment [1] (interferent prepared at 16 μM) is “no”. As for `O=C(O)C(F)(F)C(F)(F)C(F)(F)C(F)(F)C(F)(F)C(F)(F)C(F)(F)F`, in experiment [1] (interferent prepared at 16 μM), the binding result was “no”. With `O=C(O)C(c1ccc(Cl)cc1)c1ccc(Cl)cc1`, the binding result in experiment [1] (interferent prepared at 16 μM) and in experiment [2] was “no” in each case. `O=C(O)CNCP(=O)(O)O`: the binding entry in experiment [1] (interferent prepared at 16 μM) and in experiment [2] was “no” each time.
